Laboratory results taken from publication PMC9362525 (Diabetologia, 2022).
Read-outs that look alike come from different tables or passages of the source. Values belong to the molecule of their own block, whether it stands above or below them.

Assays:
[1] = FAERS 2013 Q1-2020 Q4
[2] = test system: people with type 2 diabetes; format: in vivo, human; details: for achieved HbA1c: 16 weeks, pioglitazone 30mg, sitagliptin 100mg, canagliflozin 100mg
human delta cells = format: cell-based
patients with T2D = format: in vivo, human; details: for change in LVEF with acipimox: resting
[3] = test system: adult participants, liver steatosis by VCTE; details: multivariable adjusted
[4] = test system: β-cells from Ins2GFP knock-in mice; format: cell-based, mouse
participants with NAFLD = format: in vivo, human
EndoC-βH1 cells = format: cell-based, human; details: 100 nM
[5] = test system: men with T1DM and healthy men; format: in vivo, human
[6] = test system: human subcutaneous primary preadipocytes; format: cell-based; details: for reduction of basal and insulin-stimulated glucose uptake: dose-dependent, exposure during differentiation
[7] = test system: patients with type 2 diabetes; format: in vivo, human; details: Ipr 50 mg or Met 1000 mg, 24 weeks, n=15 per group
T2DM and NGT subjects = details: for EGP after drug: 10 mg single dose, 4 hours; for increase in renal glucose production (RGP): non-significant
[8] = test system: individuals with prediabetes; details: 2 weeks
[9] = test system: skeletal muscle of type 2 diabetes patients; details: 5 weeks
[10] = test system: youth with type 2 diabetes; format: in vivo, human
[11] = test system: βV59M diabetic mouse islets; format: cell-based; details: diabetic islets + 10μM, 48 hours; n=7-8
[12] = test system: patients with obesity and T2D; format: in vivo, human
[13] = test system: wounds of streptozotocin-diabetic C57BL/6 mice; format: in vivo, mouse
human β-cells = format: cell-based
db/db mice retinas = format: in vivo, mouse
patients with T2DM = format: in vivo, human; details: all
C57BL/6J mice = format: in vivo, mouse
HFD/STZ C57Bl/6 mice = format: in vivo, mouse
[14] = 10 mg once daily, LS mean (95% CI)
[15] = before RYGB, GIP […], GLP-1 1 pmol/kg/min, ~15 mM glucose

Molecule: CCCCCCCCCCCCCCCC(=O)N[C@@H](CCC(=O)NCCCC[C@H](NC(=O)[C@H](C)NC(=O)[C@H](C)NC(=O)[C@H](CCC(N)=O)NC(=O)CNC(=O)[C@H](CCC(=O)O)NC(=O)[C@H](CC(C)C)NC(=O)[C@H](Cc1ccc(O)cc1)NC(=O)[C@H](CO)NC(=O)[C@H](CO)NC(=O)[C@@H](NC(=O)[C@H](CC(=O)O)NC(=O)[C@H](CO)NC(=O)[C@@H](NC(=O)[C@H](Cc1ccccc1)NC(=O)[C@@H](NC(=O)CNC(=O)[C@H](CCC(=O)O)NC(=O)[C@H](C)NC(=O)[C@@H](N)Cc1cnc[nH]1)[C@@H](C)O)[C@@H](C)O)C(C)C)C(=O)N[C@@H](CCC(=O)O)C(=O)N[C@@H](Cc1ccccc1)C(=O)N[C@H](C(=O)N[C@@H](C)C(=O)N[C@@H](Cc1c[nH]c2ccccc12)C(=O)N[C@@H](CC(C)C)C(=O)N[C@H](C(=O)N[C@@H](CCCNC(=N)N)C(=O)NCC(=O)N[C@@H](CCCNC(=N)N)C(=O)NCC(=O)O)C(C)C)[C@@H](C)CC)C(=O)O [liraglutide]
PRR for gallbladder or biliary diseases [1]: 5.001

Molecule: CCc1ccc(CCOc2ccc(CC3SC(=O)NC3=O)cc2)nc1 (centres unmarked) [pioglitazone]
achieved HbA1c [2]: 59.5 mmol/mol
weight on therapy higher than other drugs ([2]; [95%CI]): 2.6 [2.3, 2.9] kg

Molecule: C=C[C@@]1(C)CC(=O)[C@]2(O)[C@@]3(C)[C@@H](O)CCC(C)(C)[C@@H]3[C@H](O)[C@H](OC(C)=O)[C@@]2(C)O1 [forskolin]
change in K+-stimulated exocytosis vs diazoxide only (human delta cells): +68%

Molecule: CC[C@H](C)[C@H](NC(=O)[C@H](Cc1ccccc1)NC(=O)[C@H](CCC(=O)O)NC(=O)[C@H](CCCCNC(=O)COCCOCCNC(=O)COCCOCCNC(=O)CC[C@H](NC(=O)CCCCCCCCCCCCCCCCC(=O)O)C(=O)O)NC(=O)[C@H](C)NC(=O)[C@H](C)NC(=O)[C@H](CCC(N)=O)NC(=O)CNC(=O)[C@H](CCC(=O)O)NC(=O)[C@H](CC(C)C)NC(=O)[C@H](Cc1ccc(O)cc1)NC(=O)[C@H](CO)NC(=O)[C@H](CO)NC(=O)[C@@H](NC(=O)[C@H](CC(=O)O)NC(=O)[C@H](CO)NC(=O)[C@@H](NC(=O)[C@H](Cc1ccccc1)NC(=O)[C@@H](NC(=O)CNC(=O)[C@H](CCC(=O)O)NC(=O)C(C)(C)NC(=O)[C@@H](N)Cc1cnc[nH]1)[C@@H](C)O)[C@@H](C)O)C(C)C)C(=O)N[C@@H](C)C(=O)N[C@@H](Cc1c[nH]c2ccccc12)C(=O)N[C@@H](CC(C)C)C(=O)N[C@H](C(=O)N[C@@H](CCCNC(=N)N)C(=O)NCC(=O)N[C@@H](CCCNC(=N)N)C(=O)NCC(=O)O)C(C)C [semaglutide]
PRR for gallbladder or biliary diseases [1]: 6.267

Molecule: Cc1cnc(C(=O)O)c[n+]1[O-] [acipimox]
reduction of FFAs (patients with T2D; acute, at all visits): ~ 35%
change in LVEF with acipimox (patients with T2D; during empagliflozin treatment): -6±2%
change in LVEF with acipimox (patients with T2D; during insulin treatment): -5.4±1%

Molecule: CCC(CCC(C)=O)COC(=O)c1ccccc1C(=O)O (centres unmarked) [MEOHP, mono(2-ethyl-5-oxohexyl) phthalate]
OR for NAFLD per unit increase of urinary concentration [3]: 1.01

Molecule: CCCC(=O)O [sodium butyrate]
Ins2 gene activity state [4]: inducing transitions from Ins2^GFP(low) states to Ins2^GFP(high) states

Molecule: CC(C)c1nc(N(C)S(C)(=O)=O)nc(-c2ccc(F)cc2)c1/C=C/[C@@H](O)C[C@@H](O)CC(=O)O [monotherapy, rosuvastatin]
MRI-PDFF at study completion (participants with NAFLD; baseline 18.1 (combination), 15.0 (monotherapy)): 12.4%
CAP by transient elastography at completion (participants with NAFLD; baseline 321 (combination), 323 (monotherapy)): 311 dB/m

Molecule: insulin-like growth factor binding protein 7 [IGFBP7]
insulin secretion normalised to total insulin (EndoC-βH1 cells; 72 h, CTRL 5.2, n=4): 4.0 %/h
C-peptide secretion at 20 mM glucose (EndoC-βH1 cells; acute, CTRL 111, n=5): 90 ng/mg prot/h

blood D-3-OHB concentration during infusion ([5]; CTR, from 0.2±0.03): 1.0 ± 0.1 mmol/L
blood D-3-OHB concentration during infusion ([5]; T1DM, from 0.2±0.06): 1.2 ± 0.12 mmol/L
Molecule: 3-hydroxybutyrate [3-OHB]
circulating FFA concentration after infusion ([5]; CTR, from 0.48±0.09): 0.21 ± 0.04 mmol/L
circulating FFA concentration after infusion ([5]; T1DM, from 0.68±0.12): 0.15 ± 0.03 mmol/L

Molecule: O=C1CCc2ccc(OCCCCN3CCN(c4cccc(Cl)c4Cl)CC3)cc2N1 [ARI, aripiprazole]
reduction of basal and insulin-stimulated glucose uptake [6]: ≤ 70%
reduction of preadipocyte differentiation rate ([6]; supra-therapeutic concentrations, 14 days): ≤ 80%

Molecule: OC[C@H]1O[C@@H](c2ccc(F)c(Cc3cc4ccccc4s3)c2)[C@H](O)[C@@H](O)[C@@H]1O [Ipr, ipragliflozin]
change in visceral fat area [7]: -17.8%

Molecule: N=C(N)NCCC[C@H](N)C(=O)O [arginine]
Ins2 gene activity state [4]: inducing transitions from Ins2^GFP(low) states to Ins2^GFP(high) states

Molecule: CCOc1ccc(Cc2cc([C@@H]3O[C@H](CO)[C@@H](O)[C@H](O)[C@H]3O)ccc2Cl)cc1 [dapagliflozin]
EGP after drug (T2DM and NGT subjects; NGT): 2.1±0.16
increase in renal glucose production (RGP) (T2DM and NGT subjects; NGT): 0.032 mg/kg.min
EGP after drug (T2DM and NGT subjects; T2DM): 2.43±0.15
increase in renal glucose production (RGP) (T2DM and NGT subjects; T2DM): 0.065 mg/kg.min
increase in total body EGP (T2DM and NGT subjects; in vivo): 0.45 mg/kg.min
urinary glucose excretion ([8]; 10mg/day): 36 gram/24-hour
24-hour RER ([8]; 10mg/day, whole-room indirect calorimetry): 0.814 ± 0.006
coupled mitochondrial respiration on lipid-derived substrates (O2-flux) ([8]; ex vivo skeletal muscle): 68.2 ± 3.2 pmol/mg/s
PCr recovery rate [9, 14]: 23.1 (20.7-25.5) s
acetylcarnitine levels in muscle [9, 14]: 114.56 (91.16-137.95) pmoles*mg tissue^-1
lipid droplet size [9, 14]: 0.28 (0.20-0.36) μm^2
mitochondrial network integrity [9, 14]: 1.73 (1.33-2.12)
mitochondrial-LD interaction [9, 14]: 12.51 (9.70-15.32) %
CPT1A gene expression increase ([9]; muscle biopsy): 1.33 fold
CPT1B gene expression increase ([9]; muscle biopsy): 1.13 fold

Molecule: dulaglutide
BMI change ([10]; 26 weeks): No effect
incidence of diarrhoea ([10]; pooled doses): 18.4%
incidence of nausea ([10]; pooled doses): 14.6%
incidence of vomiting ([10]; pooled doses): 15.5%
patients requiring rescue therapy ([10]; pooled doses 0.75 and 1.5 mg, 26 weeks): 2.9%

Molecule: PF-4708671 [S6Ki]
glucose-stimulated increase in OCR above baseline [11]: 203.94±39.24%
oligomycin-induced decrease in OCR [11]: 240.32±9.71%

Molecule: CNC[C@H](O)c1ccc(O)c(O)c1 [adrenaline]
change in K+-stimulated exocytosis (human delta cells): +56%
change in K+-stimulated exocytosis vs diazoxide only (human delta cells): -59%

Molecule: glucose-dependent insulinotropic peptide [GIP]
augmentation of second phase insulin secretion vs saline-clamp ([12]; 3 months after RYGB): +90±14%
augmentation of second phase insulin secretion vs saline-clamp [12, 15]: +96±16%

Molecule: Bone morphogenetic protein-7 [BMP7]
acceleration of wound closure ([13]; 0.5 μg per wound/day topical, vs vehicle): 20%
number of lymphocytes in diabetic wounds ([13]; mouse, in vivo): did not change
collagen deposition higher ([13]; vs vehicle-treated wounds): 35%
increase in area of granulation tissue ([13]; vs vehicle-treated wounds): 50%
reduction in number of macrophages ([13]; vs vehicle-treated wounds): 30%

Molecule: NC(=O)N1c2ccccc2CC(=O)c2ccccc21 [oxcarbazepine]
cytokine- and ER stress-induced β-cell death (human β-cells): protected

Molecule: N[C@@H](CC(=O)N1CCn2c(nnc2C(F)(F)F)C1)Cc1cc(F)c(F)cc1F [sitagliptin]
diabetes-induced down-regulation of presynaptic proteins (db/db mice retinas; eye drops 5 μL/eye, 10 mg/mL, twice per day, 2 weeks): inhibits this diabetes-induced down-regulation
blood glucose levels (db/db mice retinas; topical): without any effect
achieved HbA1c [2]: 59.9 mmol/mol

Molecule: CCC(CCC(C)O)COC(=O)c1ccccc1C(=O)O (centres unmarked) [MEHHP, mono(2-ethyl-5-hydroxyhexyl) phthalate]
OR for NAFLD per unit increase of urinary concentration [3]: 1.01

Molecule: dehydroaripiprazole [DARI]
reduction of basal and insulin-stimulated glucose uptake [6]: ≤ 70%

Molecule: COc1ccc(Cl)cc1C(=O)NCCc1ccc(S(=O)(=O)NC(=O)NC2CCCCC2)cc1 [glibenclamide]
incidence of severe hypoglycaemia (patients with T2DM): 1.3 % per year

Molecule: Cc1cc2c(s1)Nc1ccccc1N=C2N1CCN(C)CC1 [OLA, olanzapine]
adipogenesis or lipid and glucose metabolism ([6]; 0.2 and 2 μM during differentiation): did not affect
increase in LEP expression ([6]; present during differentiation): ~ 2 fold

Molecule: glucagon-like peptide-1 [GLP-1]
augmentation of second phase insulin secretion vs saline-clamp ([12]; 3 months after RYGB): +233±32%
augmentation of second phase insulin secretion vs saline-clamp [12, 15]: +399±84%
Ins2 gene activity state [4]: inducing transitions from Ins2^GFP(low) states to Ins2^GFP(high) states

Molecule: Irisin
final body weight (C57BL/6J mice; 0.5 μg/g i.p., 4 weeks, HFD 49.67 ± 1.48): 44.87 ± 1.42 g
fat mass (C57BL/6J mice; HFD 14.56 ± 0.43): 11.75 ± 0.78 g
fat/weight (C57BL/6J mice; HFD 29.37 ± 0.75): 26.08 ± 1.09%
change in body weight vs HFD/STZ (HFD/STZ C57Bl/6 mice; 0.5 μg/g, 14 days): -13%
change in glycemia vs HFD/STZ (HFD/STZ C57Bl/6 mice; 0.5 μg/g, 14 days, n=4): -31%
change in GSIS AUC vs HFD/STZ (HFD/STZ C57Bl/6 mice; mouse, in vivo): +23%
change in alpha-cell area vs HFD/STZ (HFD/STZ C57Bl/6 mice; mouse, in vivo): -49%
change in beta-cell area vs HFD/STZ (HFD/STZ C57Bl/6 mice; mouse, in vivo): +34%
change in insulin content vs HFD/STZ (HFD/STZ C57Bl/6 mice; mouse, in vivo): +36%
change in islets volume vs HFD/STZ (HFD/STZ C57Bl/6 mice; mouse, in vivo): +61%
increase in beta-cell proliferation rate (HFD/STZ C57Bl/6 mice; vs SD and HFD/STZ): 9 fold

Molecule: GABA
change in K+-stimulated exocytosis vs diazoxide only (human delta cells): +66%
